Here are results for one compound from patent US20260125357A1, “LACTATE ENHANCING COMPOUNDS AND USES THEREOF” (GLIAPHARM SA, priority 2022, published 2026).

One test deals with primary astrocytes. Put plainly: Extracellular medium acidification (SNARF5) assay in astrocytes. The note with it: Mus musculus, Astrocyte; astrocytes in vitro; compounds 10 nM to 30 μM; read-out: Activity (EC50 class, extracellular medium acidification SNARF5). Format: cell-based. How it is done:
To assess for the effect of the compounds of the invention, those were tested in primary mouse astrocytes and astrocytes differentiated from human-derived induced pluripotent stem cells (iPSCs). Secretion of lactate was measured indirectly through the acidification of extracellular medium using extracellular pH sensor SNARE-5F-(AND-6)-CAR (SNARF5) as described below.
Primary cultures of cerebrocortical astrocytes were obtained from 1 to 2-day-old OF1 mouse pups (Charles River Laboratories). Briefly, cortices were isolated and minced in small pieces under a dissecting microscope. The cells were incubated for 30 min at 37° C. in a solution containing 20 U/ml papain, 1 mM L-cysteine and 10 kU/ml DNase I. After dissociation, papain activity was stopped by the addition of fetal calf serum (FCS). Single-cell suspension was then obtained by mechanical dissociation, which consisted in cells trituration in a DMEM D7777 medium supplemented with 44 mm NaHCO3, 10 ml/L antibiotic/antimycotic solution and 10% FCS. The cells were seeded at an average density of ˜10′000 cells/cm^2 on poly-D-lysine coated 96- or 12-well culture plates, depending on their use, and grown in DMEM D7777 medium supplemented with 44 mm NaHCO3, 10 ml/L antibiotic/antimycotic solution and 10% FCS at 37° C. in a humidified atmosphere containing 5% CO2/95% air. Culture medium was renewed twice a week. Cells were stimulated and harvested between DIV14 and DIV17, when confluence and cell growth were optimal.
Secretion of lactate was measured indirectly through the acidification of extracellular medium using extracellular pH sensor SNARF-5F-(AND-6)-CAR (SNARF5). After washing cells twice with stimulation medium (DMEM (D5030, Sigma), 1 mM […], and 5 mM Glucose, pH 7.4) at 37° C., cells were stimulated with compounds at a final concentration ranging from 10 nM to 30 μM in 50 μl per well of stimulation medium supplemented with 10 μM of SNARF5 (Life Technologies Corporation). Each compound was tested in two different plates for duplicates. After 30, 60 and 90 min stimulation, fluorescence was read at exc. (excitation) 480 nm/emm. (emission) 580 nm and at exc 480 nm/emm. 630 nm. The ratio of fluorescence between 630 nm and 580 emission values, which is proportional to extracellular pH, was calculated. In each plate, 8 wells were used for negative controls (DMSO 0.1%) and 8 wells were used for positive controls (CCCP 2 μM in DMSO). Results are shown as % of positive control effect (0% and 100% being activities of the Veh and positive control, respectively).

The test system of the next test is GLUT1-DS transgenic mice. Nature of the test: Rotarod motor function in GLUT1-DS transgenic mice. Format: in vivo, mouse. The note with it: single administration 10 mg/kg, 20 min before rotarod. An excerpt: Heterozygous transgenic mice on 129/SvJ genetic background in which glucose transporter 1 (GLUT1) has been knocked down were used (GLUT1(+/−)) (Wang et al., 2016, Human Molecular Genetics, 15(7)). GLUT1-deficiency syndrome (GLUT1-DS) is a prototypic hypometabolic diseases caused by the mutation of GLUT1 and decreased levels of glucose and lactate in the brain (Tang et al., 2019, Annals of Clinical and Translational Neurology 6(9)). Mating colonies were composed of wild-type female mice and GLUT1-DS male mice, or GLUT1-DS female mice and wild-type male mice. F1 pups were genotyped after ear punching at weaning using PCR to determine genotype. Mice of 2 to 3 months of age were used.
Motor function was measured in wild-type (WT) and GLUT 1-DS transgenic mice in the rotarod after single administration of Veh. or compound (1) or (2) (10 mg/kg) 20 min before rotarod. Rotarod testing consisted in placing the mouse on an accelerating rotating rod (4 to 40 r.p.m.) during a maximum of 300 seconds. 3 consecutive sessions with 15 min apart were performed. Latency for the mouse to fall from the rod was recorded and the maximal latency over the 3 trials was used as a measure of motor function.
For orientation: In the rotarod test animals must keep their balance on a rotating rod.

Test [1] has as its system old C57Bl/6J wild-type mice. Put plainly: Morris Water Maze memory in old (16-month-old) wild-type mice. The note with it: 1 day after training. Format: in vivo, mouse. How it is done: Adult male C57Bl/6J wild-type from 3 month of age (young adults) to 16 month of age (old adults) are used (Charles River). Animals are housed in groups of 3-5 in polypropylene cages (30×40×15 cm) with wire mesh top in a temperature (22±2° C.) and humidity (55±15%) controlled environment on a 12-hour light cycle (07.00-19.00 h lights on). The samples (Vehicle or compounds of the invention) are administered per os (gavage) in a solution made of water supplemented with 0.4% hydroxypropyl methylcellulose (HPMC) Methocel 4 KM (w/v) and 0.25% Tween-20 (v/v), as previously described (Thackaberry et al., 2010, Toxicol Sci., 117(2):485-92). Memory of young adults treated with Vehicle or Old adults treated with Vehicle or compound (1) at 10 mg/kg or 30 mg/kg is tested in the Morris Water Maze, as described below. Treatment is administered at each day of training, 30 minutes before the first training session. No treatment is administered during memory retention test.
Morris Water Maze (MWM), a well-established spatial and contextual memory test, will be used. […] A number of parameters including the latency to find the platform, time spent around the platform, path efficiency, % time spent in each quadrant is recorded, using automated tracking software (Ethovision). The type of exploration (direct, random, scan of the area) is also recorded. […]

A value given as a limit tells only on which side of the number the result lay.

In general, EC50 refers to the concentration at which the effect is half-maximal. `COc1cc2ccnc(Nc3ccc(S(C)(=O)=O)cc3)c2cc1OC` [Compound 2, 6,7-dimethoxy-N-(4-methylsulfonylphenyl)isoquinolin-1-amine]: the EC50 in the test with primary astrocytes is less than 1000 nM. Besides, the “rotarod performance (latency to fall)” value in the test on GLUT1-DS transgenic mice is “increased rotarod performance”. Further, the “memory in the Morris Water Maze” value in test [1] (10 mg/kg per os) and in test [1] (30 mg/kg per os) was “significant increase of memory” in each case.
